Assay results reported in ChEMBL document CHEMBL3885861, “Open TG-GATES”.

Species: Rattus norvegicus
Experiment: Open TG-GATES - Regimen: Single
Assay type: toxicity, organism-based, Sprague-Dawley
Parameters: regimen Single, gender Male, age 6 weeks
Details: in vivo, po, 60 mg/kg, route gavage, dose level High; for APTT / Bas / Eos / Fbg / Hb / Ht / Lym / MCH / MCHC / MCV / Mono / Neu / PT / Plat / RBC / Ret / WBC: tissue Blood; for KIDNEY_L / KIDNEY_R / KIDNEY_TOTAL: tissue Kidney; for LIVER: tissue Liver; for A/G / ALP / ALT / AST / BUN / CRE / Ca / Cl / DBIL / GLC / IP / K / LDH / Na / PL / RALB / TBIL / TC / TG / TP / gamma-GTP: tissue Plasma

## CC(C)NNC(=O)c1ccncc1 [IPRONIAZID]
9 h
  TERMINAL_BW: 196.4 g
  APTT: 22.5 s
  Bas: 0%
  Eos: 1%
  Fbg: 320.6 mg/dL
  Hb: 13 g/dL
  Ht: 37.9%
  Lym: 76%
  MCH: 20 pg
  MCHC: 34.3%
  MCV: 58.3 fL
  Mono: 1.4%
  Neu: 21%
  PT: 15.9 s
  Plat: 121.4 x10_4/uL
  RBC: 650.4 x10_4/ul
  Ret: 6.3%
  WBC: 55.2 x10_2/uL
  KIDNEY_L: 0.9 g
  KIDNEY_R: 0.9 g
  KIDNEY_TOTAL: 1.8 g
  LIVER: 8 g
  A/G: 1.2
  ALP: 1174.6 IU/L
  ALT: 27.2 IU/L
  AST: 65 IU/L
  BUN: 7.6 mg/dL
  CRE: 0.2 mg/dL
  Ca: 10.4 mg/dL
  Cl: 107 meq/L
  DBIL: 0.006 mg/dL
  GLC: 184.6 mg/dL
  IP: 9.4 mg/dL
  K: 4 meq/L
  LDH: 176.2 IU/L
  Na: 142.2 meq/L
  PL: 139.6 mg/dL
  RALB: 3.1 g/dL
  TBIL: 0.004 mg/dL
  TC: 84.4 mg/dL
  TG: 30.4 mg/dL
  TP: 5.6 g/dL
  gamma-GTP: 1 IU/L
24 h
  TERMINAL_BW: 208.5 g
  APTT: 21.7 s
  Bas: 0%
  Eos: 1%
  Fbg: 336.8 mg/dL
  Hb: 13.6 g/dL
  Ht: 39.4%
  Lym: 80.6%
  MCH: 21.3 pg
  MCHC: 34.5%
  MCV: 61.8 fL
  Mono: 2.4%
  Neu: 14.8%
  PT: 15.4 s
  Plat: 119.6 x10_4/uL
  RBC: 637.4 x10_4/ul
  Ret: 7.5%
  WBC: 66.9 x10_2/uL
  KIDNEY_L: 0.9 g
  KIDNEY_R: 1 g
  KIDNEY_TOTAL: 1.9 g
  LIVER: 9.2 g
  A/G: 1.3
  ALP: 1223.4 IU/L
  ALT: 37 IU/L
  AST: 74.4 IU/L
  BUN: 14 mg/dL
  CRE: 0.2 mg/dL
  Ca: 10.6 mg/dL
  Cl: 107 meq/L
  DBIL: 0.002 mg/dL
  GLC: 187.6 mg/dL
  IP: 7.8 mg/dL
  K: 4.1 meq/L
  LDH: 240.4 IU/L
  Na: 142.6 meq/L
  PL: 148.6 mg/dL
  RALB: 3.1 g/dL
  TBIL: 0.02 mg/dL
  TC: 91 mg/dL
  TG: 60.6 mg/dL
  TP: 5.6 g/dL
  gamma-GTP: 1.6 IU/L
